US20080113003A1, “Sinapic Acid Supplementation” (UNIVERSITY OF SASKATCHEWAN, priority 2004, published 2008)
Marks after values point to notes of the source that are not given here.

Key:
[1] = Example 1: performance of broiler chickens on dietary sinapic acid (gain, feed intake, gain/feed); format: in vivo; settings: 0-18 d of age
Description: Bird management. Broilers were housed in battery brooders.

[2] = Example 1: apparent nutrient digestibility (AME, ileal and fecal protein); format: in vivo, broiler chickens; settings: for AME (apparent metabolizable energy): excreta 16-18 d
Experimental: (§1) Sample Analyses. Acid insoluble ash (AIA, Celite) was used as an indigestible marker for the determination of the apparent digestibility of metabolizable energy, protein (ileal and fecal) and SA. AIA was determined by using the procedure of Vogtmann et al, 1975 Br. Poult. Sci. 67:641-646. The gross energy was measured by a traditional bomb calorimeter, and crude protein was analyzed by a Leco FP-528™ protein analyzer (Model No. 601-500-100, Serial#3211, LECO Corporation, 3000 Lakeview Avenue, St. Joseph Mich. 49085-2396 USA). Based on the assay of nutrient and AIA in feed, excreta, and ileal content, the nutrient digestibility was determined.

[3] = Example 1: apparent sinapic acid digestibility (HPLC of feed, excreta, digesta); format: in vivo, broiler chickens; settings: dietary sinapic acid 0.025-0.10%
Experimental: as §1
The analysis of sinapic acid in feed, excreta and digesta samples was conducted by HPLC using a reversed-phase column under the fluorescence detection method. The mobile phase was isocratic, based on 6% MeOH solution with 20 mmol K2HPO4 as basic buffer. For feed and excreta samples, the analysis was conducted at pH 9.5, however, for ileal and cecal samples, the pH was changed to 9 to obtain better background separation and chromatograms.

[4] = system: bacterial populations in the ileum and ceca; assay: Example 2: volatile fatty acid content of ileal and cecal digesta (0.05-0.20% sinapic acid); format: in vivo, broiler chickens; settings: sinapic acid 0.05-0.20% in diet
Experimental: Bird management and diet composition were as described in Example 1. Volatile Fatty Acid (VFA) Measurement. The status of bacterial populations in the ileum and ceca of experimental birds was assessed by examining VFA production. The birds were killed by lethal injection with T-61TM(Euthanasia solution) and the ileal and cecal digesta of three birds within each replication were collected in a well-sealed plastic centrifuge tube and then frozen at -20° C. Ileal digesta were collected from the terminal ileum (distal half excluding the last 2 cm anterior from the ceca). Samples within a replication were pooled and mixed well prior to VFA measurement. Analyses of VFA (acetic, propionic, isobutyric, butyric, isovaleric, and valeric acid) were conducted by Gas Chromatography (GC) (Varian Star 3400) using a StabilwaxTM-DA column (0.25 mm ID, 0.25 μm […] Corporation, 110 Benner Circle, Bellefonte Pa., 16823-8812 USA) and based on the procedure of Choct et al. (Br. Poult. […] A concentration of 2 mmol/L is acceptable for the internal standard in intestinal content samples. One ml of standard solution was added to 0.2 (cecal) or 0.5 (ileal) g of sample and vortexed until well-mixed. The mixture was then centrifuged at 28,000 g for 10 minutes and the supernatant pipetted into GC vials for analysis. Statistical Analyses. […]

[5] = system: cecal microbial community; assay: Example 3: microbial community assay, % G+C profile of cecal digesta; format: in vivo, broiler chickens; settings: dose dependent, sinapic acid 0.025-0.10% in diet
[6] = Example 3: feed consumption, weight gain and diet AME; format: in vivo, broiler chickens; settings: sinapic acid 0.025% in diet
Experimental: Broiler chickens were fed a corn-soybean meal based diet either unsupplemented or supplemented with sinapic acid at a level of 0.025%, 0.05% or 0.1%. After the supplementation period, microbial analysis was conducted. This Example was designed to confirm the results of Example 2, to assess effects on microbial community, and to repeat the VFA measurement by increasing the chick numbers within the replication.
Ninety-six ([…]) male broiler chicks (Peterson X Hubbard) were randomly assigned to four treatments, with six birds in each replication and four replications for each treatment. A corn-soybean based diet served as a control, while another three diets were supplemented with graded levels of sinapic acid (0.025, 0.05 and 0.10%). Bird management was as previously described in Example 1. Volatile fatty acid measurement was conducted as described in Example 2, except that digesta was pooled from six birds per replication.

## COc1cc(C=CC(=O)O)cc(OC)c1O [Sinapic Acid, 4-hydroxy-3,5dimethyoxy-cinnamic acid]
[1]; sinapic acid 0.025% in diet
  Feed intake/bird: 781^a g
  Gain: 561 g
  Gain/feed: 0.72
[1]; sinapic acid 0.05% in diet
  Feed intake/bird: 738^ab g
  Gain: 545 g
  Gain/feed: 0.74
[1]; sinapic acid 0.10% in diet
  Feed intake/bird: 689^b g
  Gain: 491 g
  Gain/feed: 0.71
[2]; sinapic acid 0.025% in diet
  Fecal protein digest.: 68.5%
  Ileal protein digest.: 81.5%
  AME (apparent metabolizable energy): 3412 kcal/kg
[2]; sinapic acid 0.05% in diet
  Fecal protein digest.: 66.3%
  Ileal protein digest.: 78.8%
  AME (apparent metabolizable energy): 3418 kcal/kg
[2]; sinapic acid 0.10% in diet
  Fecal protein digest.: 66.5%
  Ileal protein digest.: 80%
  AME (apparent metabolizable energy): 3442 kcal/kg
[3]
  sinapic acid in the cecal digesta: no sinapic acid found
[4]
  reduction of acetic acid level in cecal contents compared with control: 15-20%
  reduction of total VFA level in cecal contents compared with control: 15-20%
[5]
  amounts of cecal microbes in the range % G+C 40-54: decreased
  relative abundance of cecal bacteria in the range % G+C 20-30: increased
  relative abundance of cecal bacteria in the range % G+C 55-69: increased
[6]
  feed consumption: increased
  increase in diet AME: 2%
  increase in weight gain: 6%
